Laboratory results reported in patent publication US20210363110A1, “4-METHYLDIHYDROPYRIMIDINONE COMPOUNDS AND PHARMACEUTICAL USE THEREOF” (Japan Tobacco Inc., priority 2018, published 2021).
In brackets after ≈: the same amount, converted by molar mass. Where two headings read alike, the source gives them in different places.

Columns and labels:
[1] = Measurement of solubility (JP1, JP2, FaSSIF, FeSSIF); format: physicochemical; conditions: thermodynamic from solid, shaken 4 hours
Protocol: A 10 mM DMSO solution (10 μL) of test substance was added to a 96-well plate, and the mixture was concentrated and dried with a centrifugal evaporator (Genevac HT-4X). 200 μL of each solvent (JP1, JP2, FaSSIF, FeSSIF) (see Non Patent Literatures 29 and 30) was added to the well after evaporation. The mixture was shaken at room temperature at 2500 rpm for 4 hours. Then, the mixture was filtered in two parts with MultiScreen PCF filter (MERCK Millipore; MSSLBPC) to give samples (50 and 100 μL). 40 μL was collected from the sample obtained in the second filtration, and thereto was added acetonitrile (300 μL). After centrifugation (4000 g, 5 min.) of the mixture, a part of the supernatant was measured by LC-UV/MS (UPLC-Premier (waters)).

[2] = tested on: IL-17 production in plasmas; assay: IL-17 production in plasmas of antigen-sensitized mice; format: in vivo, C57BL/6J mice; conditions: for IL-17 concentration in plasma, % of control, 0.3 mg/kg: 0.3 mg/kg orally once daily for 7 days; for IL-17 concentration in plasma, % of control, 0.3 mg/kg / IL-17 concentration in plasma, % of control, 1 mg/kg: MOG/CFA/PTX-sensitized mice, blood at day 8, Normal 0%, Vehicle 100%; for IL-17 concentration in plasma, % of control, 1 mg/kg: 1 mg/kg orally once daily for 7 days; for ED50: Mus musculus, 168 h, oral once daily for 7 days, antigen-sensitized mice, calculated from the 0.3 and 1 mg/kg groups, read-out: ED50 (dose where the IL-17 concentration was decreased by 50%)
Protocol: Effects of test substances on IL-17 production in plasmas were assessed in antigen-sensitized mice. Antigen sensitization was performed according to Non Patent Literature 31. Nine-week old female C57BL/6J mice (Japan Charles River K. K.) were used as a test animal.
An emulsion prepared by mixing 3 mg/mL of myelin oligodendrocyte glycoprotein (MOG; ANASPEC) and 4 mg/mL of complete Freund's adjuvant (CFA; Chondrex) in an equal ratio was administered subcutaneously to a mouse at the bilateral abdomens at a volume of 50 μL/site (day 1). 1 μg/mL of pertussis toxin (PTX; List Biological Laboratories) was administered intraperitoneally at a volume of 200 μL/head (day 1 and 3). Blood was collected at day 8.
Administration was performed once daily for 7 days after the administration of emulsion (day 1 to 7). 0.5% (w/v) methyl cellulose (MC) was administered orally at a volume of 10 mL/kg to Normal group (normal mice) and Vehicle group (antigen-sensitized mice), and 0.03 mg/mL or 0.1 mg/mL of a test substance suspended in 0.5% (w/v) MC was administered orally at a volume of 10 mL/kg to a compound-administered group.
Blood was separated by centrifugation, and then the IL-17 concentration in plasma was measured with Quantikine (Registered trade mark) Mouse IL-17 ELISA Kit (R&D systems, Inc.).
The IL-17 concentration of Normal group was deemed to be 0% and that of Vehicle group was deemed to be 100%. The IL-17 concentration percentage (% of control) of the compound-administered group was calculated from the following equation.
% of control=(a−b)/(c−b)×100
a: IL-17 concentration of the compound-administered group b: IL-17 concentration of the Normal group c: IL-17 concentration of the Vehicle group
Then, a dose of compound where the IL-17 concentration was decreased by 50% (ED50) was calculated from the following equation.
ED50=10^(log(A/B)×(50−D)/(C−D)+log(B); provided that ED50=B in the case D=50, and ED50>B in the case D>50 A: dosed amount of the lower dose group (i.e. 0.3 mg/kg) B: dosed amount of the higher dose group (i.e. 1 mg/kg) C: % of control at the lower dose group D: % of control at the higher dose group

[3] = Rat pharmacokinetic (PK) assay and measurement of plasma concentrations; format: in vivo; conditions: male rat, 0.3 mg/kg, DMSO solution, T1/2=0.693/Kel
Protocol: A DMSO solution (0.1 mL/kg) of test substance (0.3 mg/kg) was administered to a male rat (7-week old), and blood was collected at designated times (5, 10, 15, 30 min., 1, 2, 4, 8, 25 hr). Samples after the blood collection were separated by centrifugation (11000 g, 5 min.) to obtain plasmas.
A double volume of a mixed solution of acetonitrile/water (9:1) was added to a plasma sample obtained in (1) in order that proteins were extracted from the mixture. The sample after extraction was separated by centrifugation (11000 g, 5 min.), and the supernatant was measured by LC/MSMS (Nexera (Shimadzu)-QTrap5500 (AB SCIEX)). A calibration curve was measured simultaneously, and plasma concentrations were calculated.
The elimination rate constant (Kel) was calculated from two points of the elimination phase in the plasma concentration profile, and the half-life (T1/2) was calculated from the elimination rate constant.
Kel=−(ln Conc1−ln Conc2)/(t1−t2)

CYP3A4 = assay: Potential for induction of CYP3A4 (Nuclear Receptor Activation Kit, DPX2 cells, reporter activity); format: in vitro ADME; conditions: 48 hours, % of positive control (rifampicin); for Potential for induction of CYP3A4, 3 μM: 3 μM compound; for Potential for induction of CYP3A4, 10 μM: 10 μM compound
Protocol: Potential for induction of CYP3A4 was evaluated with Nuclear Receptor Activation Kits (PURACYP; DPX2-96-002) according to protocols attached.
The following experiment was performed with substances accompanying Nuclear Receptor Activation Kits (PURACYP; DPX2-96-002).
A measurement method is specifically shown as follows. DPX2 cells were seeded on a 96-well plate and incubated with a CO2 incubator for 24 hours. […] The media on 96-well plate were removed with an aspirator 24 hours after seeding, and thereto was added the compound-supplemented medium which was prepared. CellTiter-Fluor was added to the medium 48 hours after the addition of compound, and the mixture was incubated with a CO2 incubator for 1 hour. Then, a cell viability was measured by the fluorometric method. ONE-Glo was added to the mixture, and the mixture was incubated with a CO2 incubator for 5 minutes. Then, the reporter activity was measured by luminescent determination. The induction ratio was calculated by comparing the resulting reporter activity with a DMSO control sample. % of positive control was calculated from the following equation.

[4] = Metabolic stability in hepatocytes, monkey; format: in vitro ADME; conditions: residual ratio of unreacted substance, 1×10^6 cells/mL
Protocol: A test solution was prepared by diluting 10 mM DMSO solution of a test substance with acetonitrile by 20 times.
Human and animal cryopreserved hepatocyte (BIOIVT; Human (IVT-X008000), Rat (IVT-M00005), Monkey (IVT-M00305), Dog (IVT-M00205)) were adjusted with William's Medium E (SIGMA; W1878) to 1×10^6 cells/mL of a cell suspension, which was then added to a 96-well plate. Then, 1% of the solution of a test substance prepared was added to the reaction system, and the metabolic reaction was initiated. At a designated time, 0.1% formic acid-acetonitrile was added thereto, and the reaction was terminated.
The sample after termination of the reaction was separated by centrifugation (1400 g, 20 min.), and then the supernatant was measured by LC/MS (UPLC-SQD (waters)) to calculate a residual ratio of unreacted substances.

[5] = pH 1.2, simulated gastric fluid, JP1, room temperature, read-out: Solubility JP1
[6] = pH 6.8, aqueous buffer, JP2, room temperature, read-out: Solubility JP2
[7] = FaSSIF, room temperature, read-out: Solubility FaSSIF
[8] = FeSSIF, room temperature, read-out: Solubility FeSSIF

solubility at 4 h [1, 5] [µM] | solubility at 4 h [1, 6] [µM] | solubility at 4 h [1, 7] [µM] | solubility at 4 h [1, 8] [µM] | half-life [3] [min] | Potential for induction of CYP3A4, 3 μM (CYP3A4) [%] | Potential for induction of CYP3A4, 10 μM (CYP3A4) [%] | Potential for induction of CYP3A4, 30 μM (CYP3A4; 30 μM compound) [%] | Metabolic stability in hepatocytes at 240 min., Monkey [4] [%] | SMILES | IL-17 concentration in plasma, % of control, 0.3 mg/kg [2] | IL-17 concentration in plasma, % of control, 1 mg/kg [2] | ED50 [2] [mg/kg]
< 0.8 | 451 (≈ 212 µg/mL) | 470 (≈ 221 µg/mL) | ≥ 475 | 630 | <10 | <10 | <10 | 83 | CC(C)C1=CN(C23CC(C(=O)O)(C2)C3)C(=O)N[C@@]1(C)c1ccc([C@@H]2C[C@H]2C(C)(C)C)c(Cl)c1 [Compound (1), 3-{(S)-4-[4-((1R,2R)-2-tert-Butyl-cyclopropyl)-3-chloro-phenyl]-5-isopropyl-4-methyl-2-oxo-3,4-dihydro-2H-pyrimidin-1-yl}bicyclo[1.1.1]pentane-1-carboxylic acid] | 66 (=C) % | 24 (=D) % | 0.5
< 0.7 | 447 (≈ 217 µg/mL) | 445 (≈ 216 µg/mL) | 463 (≈ 225 µg/mL) | 792 | <10 | <10 |  | 85 | CC[C@H](C)C1=CN(C23CC(C(=O)O)(C2)C3)C(=O)N[C@@]1(C)c1ccc([C@@H]2C[C@H]2C(C)(C)C)c(Cl)c1 [Compound (2), 3-{(S)-5-((S)-sec-Butyl)-4-[4-((1R,2R)-2-tert-butyl-cyclopropyl)-3-chloro-phenyl]-4-methyl-2-oxo-3,4-dihydro-2H-pyrimidin-1-yl}bicyclo[1.1.1]pentane-1-carboxylic acid] | 85 (=C) % | 54 (=D) % | > 1
